The assay addresses human UDG (Homo sapiens, UniProt P13051). The assay is described as follows: High-throughput screening assay: UDG-mediated unquenching of fluorescent uracil DNA hairpin. It is filed as biochemical. Details: 6xHis; purchased XTAL Biostructures; host or cells: Sf9 insect cells. The conditions noted are these: purified human UDG, initial value, read-out: IC50 for the purified human UDG (un-quenching of fluorescence from the DNA hairpin). The protocol: FIGS. 1(A-D) illustrate high-Throughput Small-Molecule Screening for UDG Inhibitors. A: 60 min reaction time-course experiment was performed to measure human UDG enzymatic activity in the presence of 10 nM UDG (red line) or absence of UDG (black line) uracil DNA hairpin (25 nM) only control. Each data point is the average of 12 reaction replicates from a 384-well plate. Error bars represent the standard deviation from the mean. B: Two independent screens using a plate of 320 compounds were plotted on the same graph with the trend line showing a positive correlation between the two runs with an R2 value of 0.711 using y=mx+b. […] Normalized percent activity of UDG-mediated unquenching of fluorescence DNA hairpin is shown. […] Control condition denotes RFU-UDG AVG (DNA alone no protein); the average relative fluorescence unit (RFU) value was computed using a set of 32 replicate wells per screening plate. […]
The collection of biologically active molecules was compiled from the LOPAC library (Sigma Aldrich) and Bioactive Compound Library (Selleck Chemicals). […] After 40 min of incubation at room temperature (˜23° C.), fluorescence measurements were done using an Enspire plate reader (Perkin Elmer) at an excitation wavelength of 485 nm and emission wavelength of 520 nm. Compound performance from per plate was calculated and normalized accounting for background fluorescence by the following equation: […]

The structures appear in SMILES notation.

human UDG, sequence (P13051 1-304 isoform P13051-2): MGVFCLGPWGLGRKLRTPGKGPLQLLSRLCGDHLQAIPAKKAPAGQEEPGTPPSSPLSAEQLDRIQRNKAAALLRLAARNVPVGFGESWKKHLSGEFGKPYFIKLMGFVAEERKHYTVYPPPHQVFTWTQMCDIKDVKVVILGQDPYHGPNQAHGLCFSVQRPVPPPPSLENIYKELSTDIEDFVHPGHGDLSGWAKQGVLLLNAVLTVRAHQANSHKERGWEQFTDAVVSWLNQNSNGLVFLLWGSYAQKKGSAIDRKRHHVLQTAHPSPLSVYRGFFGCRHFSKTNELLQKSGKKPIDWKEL

For the compound `O=C(O)C1=CC(=C(c2ccc(O)c(C(=O)O)c2)c2ccc(O)c(C(=O)O)c2)C=CC1=O` [ATA, aurintricarboxylic acid], the 50% inhibitory concentration (IC50) (as a rule, the concentration needed to halve the response being measured) is 40 nM.

For the origin of these results see patent US20240156764A1, “INHIBITION OF URACIL DNA GLYCOSYLASE IN THE OPEN CONFORMATION” (CASE WESTERN RESERVE UNIVERSITY, priority 2022, published 2024).
